Data on five compounds can be found in patent publication EP3287466B1, “AMORPHOUS PICEATANNOL 3'-O-GLUCOSIDE AND PREPARATION METHOD THEREOF” (KPC Pharmaceuticals, Inc., priority 2015, dated 2016).

This data set can be described thus: Solubility test (shaken 30 min to saturation, content measured by HPLC). The format is physicochemical. To be noted: shaken for 30min to saturation; for piceatannol 3'-O-glucoside solubility, 0.9% aqueous solution of Sodium chloride: in 0.9wt% aqueous solution of sodium chloride. Here is the method:
Appropriate amounts of samples 1 to 4 and raw material sample were taken. Water, 0.9wt% aqueous solution of sodium chloride were added, respectively, and shaken for 30min, respectively, to dissolve the sample to saturation. The above solutions were taken and subjected to HPLC to measure the content of piceatannol 3'-O-glucoside in the solutions. Table 1. Comparison of the results of piceatannol 3'-O-glucoside solubility (mg/ml)

Molecules are shown by their SMILES. Values after ≈ are worked out from the molar mass of the structure shown.

On to `OC[C@H]1O[C@@H](Oc2cc(/C=C/c3cc(O)cc(O)c3)ccc2O)[C@H](O)[C@@H](O)[C@@H]1O` [Raw material sample, piceatannol 3'-O-glucoside], for which, where the note is “30 min”, the “piceatannol 3'-O-glucoside solubility, 0.9% aqueous solution of Sodium chloride” value stood at 4.67 mg/mL.

`OC[C@H]1O[C@@H](Oc2cc(/C=C/c3cc(O)cc(O)c3)ccc2O)[C@H](O)[C@@H](O)[C@@H]1O` [Sample 1, piceatannol 3'-O-glucoside]: the “piceatannol 3'-O-glucoside solubility, 0.9% aqueous solution of Sodium chloride” value (30 min) turned out to be 14.36 mg/mL.

Consider `OC[C@H]1O[C@@H](Oc2cc(/C=C/c3cc(O)cc(O)c3)ccc2O)[C@H](O)[C@@H](O)[C@@H]1O` [Sample 2, piceatannol 3'-O-glucoside], for which the “piceatannol 3'-O-glucoside solubility, 0.9% aqueous solution of Sodium chloride” value (30 min) worked out at 14.19 mg/mL.

The solubility is the dissolved amount per volume that the medium holds. As for `OC[C@H]1O[C@@H](Oc2cc(/C=C/c3cc(O)cc(O)c3)ccc2O)[C@H](O)[C@@H](O)[C@@H]1O` [Sample 3, piceatannol 3'-O-glucoside], the solubility at 0.5 h (water, in water, read-out: piceatannol 3'-O-glucoside solubility, Water) is 15.2 mg/mL (≈ 37.5 mM).

Regarding `OC[C@H]1O[C@@H](Oc2cc(/C=C/c3cc(O)cc(O)c3)ccc2O)[C@H](O)[C@@H](O)[C@@H]1O` [Sample 4, piceatannol 3'-O-glucoside], the “piceatannol 3'-O-glucoside solubility, 0.9% aqueous solution of Sodium chloride” value (30 min) came to 14.31 mg/mL. For the same compound, the “piceatannol 3'-O-glucoside solubility, Water” value (in water, 30 min) turned out to be 14.45 mg/mL.
